Test results taken from ChEMBL document CHEMBL5523713, “Development of novel N-aryl-2,4-bithiazole-2-amine-based CYP1B1 degraders for reversing drug resistance” (Eur J Med Chem, 2024).
Activity calls are given as the source filed them. The rule behind the calls is not given here.

How the values were obtained:
A549/TR [1] = assay: Effect on paxillin protein level in human A549/Taxol cells at 0.1 to 10 nM incubated for 24 hrs by Western blotting analysis; assay type: functional, cell-based; details: dose 0.1-10 nM
[2] = molecular target: T1, von Hippel-Lindau disease tumor suppressor/Cytochrome P450 1B1 (Homo sapiens, UniProt Q16678+P40337); assay: PROTAC activity at VHL/CYP1B1 in human A549/Taxol cells assessed as reduction in CYP1B1 level by Western blotting analysis; assay type: ADME, cell-based
Cytochrome P450 1A1 = molecular target: T2, Cytochrome P450 1A1 (Homo sapiens, UniProt P04798); assay: Inhibition of recombinant human CYP1A1 using 7-ethyl-O-resorufin as substrate incubated for 30 mins in presence of NADPH by EROD assay; assay type: ADME
T2 sequence (P04798 whole entry): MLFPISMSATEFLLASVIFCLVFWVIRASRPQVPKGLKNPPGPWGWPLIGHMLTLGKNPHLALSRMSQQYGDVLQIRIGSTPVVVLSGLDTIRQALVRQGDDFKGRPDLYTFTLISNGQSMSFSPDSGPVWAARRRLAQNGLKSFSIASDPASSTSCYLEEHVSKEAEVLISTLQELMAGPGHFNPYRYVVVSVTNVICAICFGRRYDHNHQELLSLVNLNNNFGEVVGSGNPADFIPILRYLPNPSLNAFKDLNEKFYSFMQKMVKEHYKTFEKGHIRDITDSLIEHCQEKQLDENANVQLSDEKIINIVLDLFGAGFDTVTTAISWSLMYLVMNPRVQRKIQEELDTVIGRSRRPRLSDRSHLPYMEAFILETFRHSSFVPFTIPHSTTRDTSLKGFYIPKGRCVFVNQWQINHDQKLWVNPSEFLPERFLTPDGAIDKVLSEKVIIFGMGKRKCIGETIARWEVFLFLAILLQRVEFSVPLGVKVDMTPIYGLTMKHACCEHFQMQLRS

A549/TR [3] = assay: Reversal of taxol resistance in human A549/Taxol cells assessed as decrease in cell viability at 0.1 to 10 nM incubated for 48 to 72 hrs by MTT assay; assay type: functional, cell-based; details: dose 0.1-10 nM, time 48-72 hrs
[4] = molecular target: T1, von Hippel-Lindau disease tumor suppressor/Cytochrome P450 1B1; assay: PROTAC activity at VHL/CYP1B1 in human A549/Taxol cells assessed as degradation by measuring fold change in remaining CYP1B1 level incubated for 24 hrs by Western blotting analysis (reference value: 1); assay type: ADME, cell-based
A549/TR [5] = assay: Inhibition of epithelial-to-mesenchymal transition in human A549/Taxol cells assessed as reduction in CYP1B1 expression at 0.1 to 10 nM incubated for 24 hrs by immunoblot analysis; assay type: functional, cell-based; details: dose 0.1-10 nM
[6] = molecular target: Protein cereblon/Cytochrome P450 1B1 (Homo sapiens, UniProt Q16678+Q96SW2); assay: PROTAC activity at CRBN/CYP1B1 in human A549/Taxol cells assessed as degradation by measuring fold change in remaining CYP1B1 level incubated for 24 hrs by Western blotting analysis (reference value: 1); assay type: ADME, cell-based
A549/TR [7] = assay: Inhibition of cell migration in human A549/Taxol cells at 0.1 to 10 nM incubated for 48 hrs by wound healing assay; assay type: functional, cell-based; details: dose 0.1-10 nM
Cytochrome P450 1A2 = molecular target: T3, Cytochrome P450 1A2 (Homo sapiens, UniProt P05177); assay: Inhibition of recombinant human CYP1A2 using 7-ethyl-O-resorufin as substrate incubated for 30 mins in presence of NADPH by EROD assay; assay type: ADME
T3 sequence (P05177 whole entry): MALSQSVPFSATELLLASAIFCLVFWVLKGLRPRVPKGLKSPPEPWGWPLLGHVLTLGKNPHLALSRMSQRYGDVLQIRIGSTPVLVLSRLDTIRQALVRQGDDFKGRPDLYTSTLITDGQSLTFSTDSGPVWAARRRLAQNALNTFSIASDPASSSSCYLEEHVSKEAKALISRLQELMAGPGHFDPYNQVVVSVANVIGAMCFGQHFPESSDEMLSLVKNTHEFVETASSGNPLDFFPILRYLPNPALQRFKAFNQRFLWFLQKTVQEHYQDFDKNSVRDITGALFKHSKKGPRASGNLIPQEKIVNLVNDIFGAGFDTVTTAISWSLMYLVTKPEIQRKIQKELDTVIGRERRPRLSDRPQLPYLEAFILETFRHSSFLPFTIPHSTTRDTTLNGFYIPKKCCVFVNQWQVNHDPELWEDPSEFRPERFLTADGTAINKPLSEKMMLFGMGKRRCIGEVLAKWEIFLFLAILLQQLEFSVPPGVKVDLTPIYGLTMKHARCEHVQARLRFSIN

A549/TR [8] = assay: Downregulation of P-glycoprotein expression in human A549/Taxol cells at 0.1 to 10 nM by Western blotting analysis; assay type: functional, cell-based; details: dose 0.1-10 nM
[9] = molecular target: Proto-oncogene tyrosine-protein kinase Src (Homo sapiens) (UniProt P12931); assay: Inhibition of SRC phosphorylation in human A549/Taxol cells at 0.1 to 10 nM incubated for 24 hrs by Western blotting analysis; assay type: cell-based; details: dose 0.1-10 nM
[10] = molecular target: T1, von Hippel-Lindau disease tumor suppressor/Cytochrome P450 1B1; assay: PROTAC activity at VHL/CYP1B1 in human A549/Taxol cells assessed as reduction in CYP1B1 level at 100 nM incubated for 24 hrs by Western blotting analysis; assay type: ADME, cell-based; details: 0.1 µM
Cytochrome P450 1B1 = molecular target: T4, Cytochrome P450 1B1 (Homo sapiens, UniProt Q16678); assay: Inhibition of recombinant human CYP1B1 using 7-ethyl-O-resorufin as substrate incubated for 30 mins in presence of NADPH by EROD assay; assay type: ADME
T4 sequence (Q16678 whole entry): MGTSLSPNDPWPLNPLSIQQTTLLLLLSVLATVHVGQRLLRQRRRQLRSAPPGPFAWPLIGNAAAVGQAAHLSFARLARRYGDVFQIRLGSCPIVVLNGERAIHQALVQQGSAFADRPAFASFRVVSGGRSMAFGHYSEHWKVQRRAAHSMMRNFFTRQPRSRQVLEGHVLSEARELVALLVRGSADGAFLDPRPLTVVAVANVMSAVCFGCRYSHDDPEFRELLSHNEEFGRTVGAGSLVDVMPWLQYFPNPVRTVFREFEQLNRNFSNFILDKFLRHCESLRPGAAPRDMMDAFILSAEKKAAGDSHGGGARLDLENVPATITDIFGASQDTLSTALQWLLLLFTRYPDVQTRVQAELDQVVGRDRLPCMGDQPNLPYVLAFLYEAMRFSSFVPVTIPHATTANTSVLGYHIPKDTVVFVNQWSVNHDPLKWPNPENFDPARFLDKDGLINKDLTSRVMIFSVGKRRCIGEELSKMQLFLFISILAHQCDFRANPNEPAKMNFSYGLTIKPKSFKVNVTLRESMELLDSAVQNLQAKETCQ

T1 sequence (P40337 whole entry, one chain of several): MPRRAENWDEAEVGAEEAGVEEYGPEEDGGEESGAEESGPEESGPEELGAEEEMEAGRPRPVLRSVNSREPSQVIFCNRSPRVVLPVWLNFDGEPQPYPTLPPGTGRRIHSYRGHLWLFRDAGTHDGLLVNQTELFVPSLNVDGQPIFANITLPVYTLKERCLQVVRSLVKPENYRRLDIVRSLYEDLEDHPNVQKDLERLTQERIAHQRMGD
Sequence of Proto-oncogene tyrosine-protein kinase Src (Homo sapiens) (P12931 2-536 limits assumed): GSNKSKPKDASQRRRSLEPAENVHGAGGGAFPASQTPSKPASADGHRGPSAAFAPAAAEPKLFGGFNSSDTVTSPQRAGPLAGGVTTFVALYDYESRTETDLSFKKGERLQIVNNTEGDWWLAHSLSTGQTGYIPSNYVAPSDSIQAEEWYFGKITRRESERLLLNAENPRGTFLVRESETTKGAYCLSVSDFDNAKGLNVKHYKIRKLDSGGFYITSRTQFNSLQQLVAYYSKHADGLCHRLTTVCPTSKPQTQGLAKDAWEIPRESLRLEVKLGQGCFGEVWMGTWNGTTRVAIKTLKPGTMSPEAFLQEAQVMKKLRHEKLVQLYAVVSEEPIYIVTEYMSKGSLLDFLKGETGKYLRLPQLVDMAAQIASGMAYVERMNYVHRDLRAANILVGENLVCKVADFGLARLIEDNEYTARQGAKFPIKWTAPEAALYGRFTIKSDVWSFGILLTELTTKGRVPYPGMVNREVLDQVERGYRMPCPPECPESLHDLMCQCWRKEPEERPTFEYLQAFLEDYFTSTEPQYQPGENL
Sequence of Protein cereblon/Cytochrome P450 1B1 (Q96SW2 whole entry, one chain of several): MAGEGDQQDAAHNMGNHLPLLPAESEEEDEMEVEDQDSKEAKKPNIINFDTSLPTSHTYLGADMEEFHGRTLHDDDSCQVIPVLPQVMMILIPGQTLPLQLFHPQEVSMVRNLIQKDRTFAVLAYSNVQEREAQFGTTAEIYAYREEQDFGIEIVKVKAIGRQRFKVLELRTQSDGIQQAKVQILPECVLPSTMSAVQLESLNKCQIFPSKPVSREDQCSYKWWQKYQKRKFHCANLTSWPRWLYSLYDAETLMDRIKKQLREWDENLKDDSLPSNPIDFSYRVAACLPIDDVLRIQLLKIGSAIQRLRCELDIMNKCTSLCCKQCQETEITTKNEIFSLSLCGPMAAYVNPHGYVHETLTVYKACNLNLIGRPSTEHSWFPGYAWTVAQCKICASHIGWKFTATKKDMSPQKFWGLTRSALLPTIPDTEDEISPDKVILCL

Activity [2]: Not Active
IC50 (Cytochrome P450 1A1): 279 nM
fold change (FC) [4]: 1
fold change (FC) [6]: 0.8
IC50 (Cytochrome P450 1A2): 3910 nM
inhibition [9]: Active
Activity [10]: Not Active
IC50 (Cytochrome P450 1B1): 11.9 nM
SMILES: Clc1ccc(Nc2nc(-c3nc(-c4ccccc4)cs3)cs2)cc1
Activity (A549/TR [1]): Active
Activity (A549/TR [3]): inactive
inhibition (A549/TR [5]): inactive
inhibition (A549/TR [7]): inactive
Activity (A549/TR [8]): inactive
